Test results: patent publication EP0292365A2, “4-Amino-5,8-quinazolindione derivatives, process for their preparation and pharmaceutical compositions containing them” (CENTRE NATIONAL DE LA RECHERCHE SCIENTIFIQUE, priority 1987, dated 1988)
Like-named read-outs stand apart in the source and are kept apart here.

What was measured:
[1] = J. Med. Chem. 1983, 26, pp. 1715-1719; cited from earlier work
cellules L1210 = details: J. Med. Chem. 1983, 26, pp. 1715-1719; cited from earlier work
leucémie L1210 = details: J. Med. Chem. 1983, 26, pp. 1715-1719; cited from earlier work
mélanocarcinome B16 = details: J. Med. Chem. 1983, 26, pp. 1715-1719; cited from earlier work
sarcome 180 = details: J. Med. Chem. 1983, 26, pp. 1715-1719; cited from earlier work
leucémie murine P388 = details: J. Med. Chem. 1983, 26, pp. 1715-1719; cited from earlier work
[2] = system: cellules leucémiques L 1210; experiment: In vitro cytotoxicity: growth inhibition of L 1210 leukemia cells (Coulter count); assay type: cell-based, souris; details: Mus musculus, L1210, 48 h, read-out: CI50 après 48 h de culture
Protocol: La détermination de la cytotoxicité in vitro sur les cellules leucémiques L 1210 est la méthode utilisée pour sélectionner les molécules potentiellement antitumorales. Le protocole mis en oeuvre est le suivant :
les cellules leucématiques L 1210 adaptées à la culture en suspension stationnaire sont entretenues dans du milieu RPMI 1640 (commercialisé par Seromed) additionné de 20 % de sérum de cheval décomplémenté, L-glutamine (2 mM), pénicilline (200 U/ml), streptomycine (50µg/ml) et cultivées à 37° C dans une atmosphère à 5 % de C02. Les cultures testées par la méthode de BARILE (BARILE M.F. Mycoplasmal contamination of cell culture, in Contamination in Tissue Culture, J. Fogh (ed.) Acad. Press, 132-156, 1973) sont exemptes de contaminations bactériennes et mycoplasmiques.
Pour les expérimentations, les cellules sont ensemencées à la concentration de 0,8.10^5 cellules/ml et cultivées par 2 ml dans des flacons de 15 ml. Les substances à étudier sont dissoutes dans du DMSO (1 % final) dont on a préalablement vérifié l'innocuité. Des quantités croissantes de produit à tester sont ajoutées au temps 0 et des numérations sont faites au compteur COULTER après 24 et 48 heures de culture. Des séries de contrôle sont effectuées avec des quantités de DMSO équivalentes à celles des séries traitées.
Le temps de doublement des cellules témoins est approximativement de 12 heures.
La cytotoxicité est déterminée d'après l'inhibition de croissance des cellules L 1210, calculée par rapport aux témoins correspondants selon la formule : [formula] • T = concentration de cellules non traitées, • t = concentration de cellules traitées.
La concentration de produit qui diminue la croissance cellulaire de 50 % (Clso) est calculée d'après la méthode des régressions linéaires en coordonnées log-probit.
Lorsque la Cl50 est voisine de la micromolarité (égale ou inférieure à 1 µM), il existe une présomption d'activité antitumorale et les essais in vivo indiqués ci-après sont effectués.
A titre d'exemple, la CI50 mesurée 48 heures après traitement des cellules par les composés de l'invention testés est la suivante : […]

[3] = Solubility in water (statement); assay type: physicochemical
Leucémie P388 = assay type: in vivo, souris DBA/2; details: for Animaux survivants/ animaux traités / T/C / ΔP (J5-J1): P388, greffe ip (10^6 cel), ip J1, suspension dans le Klucel; for activité antitumorale comparée: compared with the quinazolinedione of J. Med. Chem. 1983, 26, 1715-1719
Source text: Afin de tester l'activité antitumorale des composés décrits plus haut, on a utilisé les leucémies murines P388 et L1210, ainsi que le mélanome murin B16. La leucémie P388 est considère comme très sensible et permet une première sélection. D'autre part, une substance ayant une grande activité sur la leucémie L1210 a une grande chance d'être active en clinique humaine (J.M. Venditti; Relevance of transplantable animal tumor systems to the Selection of new agents for clinical trial in pharmacological basis of cancer chemotherapy. The University of Texas ed. Williams and Wilkins, publ. 1975, Baltimore USA).
Cette étude a été réalisée sur 1, 2 ou 3 tumeurs murines expérimentales selon le schéma suivant :
Les produits en solution dans l'eau ou en suspension dans du Klucel sont administrés par voie intrapéritonéale 24 heures après la greffe des cellules tumorales (10 animaux par série), soit en injection unique (J1), soit pendant 9 jours consécutifs (Ji-9). Les morts sont relevés chaque jour à la même heure. La comparaison du temps médian de survie des souris témoins (C) et des souris traitées (T) permet d'apprécier l'activité antitumorale du produit. On adopte comme critère d'activité minimale la valeur de T/C supérieure ou égale à 125 % conformément aux critères établis par GERAN et par l'O.M.S. (Réf. GERAN R.I., GREENBERG N.H., MACDONALD M.M., SCHUMACHER A.M. and ABBOTT B.J. Protocols for screening chemical agents and natural products against animal tumors and other biological systems. Cancer Chemother. Rep. Part 3, 3, 1-103 (1972)).
Lorsque le composé est actif sur plusieurs tumeurs, son administration par d'autres voies que la voie intrapéritonéale (i.p.) est envisagée : orale (p.o) et intraveineuse (i.v). Les résultats des essais effectués à l'aide du composé 63 sont rassemblés dans le tableau IV ci-après.
Les résultats des essais effectués à l'aide des composés de l'invention n° 57 et 59 sont rassemblés dans le tableau IV Bis ci-après.
Dans les tableaux IV et IV Bis, P représentent la variation de poids entre J1 et J5 des animaux traités; lorsque P est supérieure à environ 4 g, cela signifie que la dose à laquelle le composé a été testé est toxique.

[4] = Determination of toxicity (DLo), single intraperitoneal dose; assay type: in vivo; details: voie intrapéritonéale, dose unique, souris Swiss, suivies pendant un mois
Source text: Ils sont tous administrés, par voie intrapéritonéale (ip), à des souris Swiss de 22 ± 2 g, à doses uniques exprimées en mg/kg de poids corporel. Les animaux sont suivis pendant un mois. La mortalité et les signes de toxicité sont relevés. On détermine ainsi la DLoqui sera la dose maximale utilisée pour la détermination de l'activité antitumorale.

Compound	IC50 [2] [nM]	solubilité dans l'eau [3]	Animaux survivants/ animaux traités (Leucémie P388; 5 mg/kg)	T/C (Leucémie P388; 5 mg/kg) [%]	ΔP (J5-J1) (Leucémie P388; 5 mg/kg)	Animaux survivants/ animaux traités (Leucémie P388; 2,5 mg/kg)	T/C (Leucémie P388; 2,5 mg/kg) [%]	ΔP (J5-J1) (Leucémie P388; 2,5 mg/kg)	activité antitumorale comparée (Leucémie P388)	DLo [4]	other results
O=C1C(N2CC2)=C(N2CC2)C(=O)c2ncncc21 [bis(aziridinyl-1)-6,7 quinazolinedione-5,8]	–	–	–	–	–	–	–	–	–	–	activité par voie orale [1]: n'est pas actif; cytotoxicité in vitro sur les cellules L1210 (cellules L1210): cytotoxique; activité antitumorale in vivo sur la leucémie L1210 (leucémie L1210): ne présente pas d'activité antitumorale significative; activité in vivo sur le mélanocarcinome B16 (mélanocarcinome B16): très faible activité; activité antitumorale in vivo sur le sarcome 180 (sarcome 180): ne présente pas d'activité antitumorale significative; activité antitumorale in vivo sur la leucémie murine P388 (leucémie murine P388): une certaine activité antitumorale
O=C1C(N2CC2)=C(N2CC2)C(=O)c2c(NCCCCCCCNc3ncnc4c3C(=O)C(N3CC3)=C(N3CC3)C4=O)ncnc21 [compound 54]	3.7	–	–	–	–	–	–	–	–	–	–
CN(CCCNc1ncnc2c1C(=O)C(N1CC1)=C(N1CC1)C2=O)CCCNc1ncnc2c1C(=O)C(N1CC1)=C(N1CC1)C2=O [compound 57]	4.8	insolubles dans l'eau	10/10	168	-4,2 g	10/10	150	-1,8 g	nettement plus actifs	~2,5 mg/kg	Animaux survivants/ animaux traités (Leucémie P388; 1,25 mg/kg): 06/06; T/C (Leucémie P388; 1,25 mg/kg): 137%; ΔP (J5-J1) (Leucémie P388; 1,25 mg/kg): -1,0 g
O=C1C(N2CC2)=C(N2CC2)C(=O)c2c(NCCOCCOCCNc3ncnc4c3C(=O)C(N3CC3)=C(N3CC3)C4=O)ncnc21 [compound 59]	18	insolubles dans l'eau	10/10	133	-1,1 g	10/10	115	-0,5 g	nettement plus actifs	~10 mg/kg	Animaux survivants/ animaux traités (Leucémie P388; 10 mg/kg): 10/10; T/C (Leucémie P388; 10 mg/kg): 135%; ΔP (J5-J1) (Leucémie P388; 10 mg/kg): -1,8 g; Animaux survivants/ animaux traités (Leucémie P388; 15 mg/kg): 07/10; T/C (Leucémie P388; 15 mg/kg): 145%; ΔP (J5-J1) (Leucémie P388; 15 mg/kg): -4,1 g
COC1=CC(=O)c2ncnc(NCCCN3CCC(C4CCN(CCCNc5ncnc6c5C(=O)C(OC)=CC6=O)CC4)CC3)c2C1=O [compound 70]	–	–	–	–	–	–	–	–	–	–	IC50 ([2]; L 1210 cells, 48 heures après traitement): 1300 nM
